Reference: patent EP4740965A1, “PHARMACEUTICAL COMPOSITION OF COMPOUND FOR INHIBITING AND DEGRADING IRAK4, AND USE THEREOF IN MEDICINE” (Xizang Haisco Pharmaceutical Co., Ltd., priority 2023, dated 2025)

Columns and labels:
[1] = target: T1, hERG potassium ion channel (Homo sapiens, UniProt Q12809); experiment: Effect on hERG potassium ion channel, manual whole cell patch-clamp in CHO cells; format: cell-based; conditions: hamster, inhibitory effect on hERG potassium channel current
T1 construct: expressed in transfected cells
Text: Test example 3. Test of effect on hERG potassium ion channel
Experimental platform: electrophysiological manual patch-clamp system
Cell line: Chinese hamster ovary (CHO) cell line stably expressing hERG potassium ion channel
Experimental method: In CHO (Chinese Hamster Ovary) cells stably expressing hERG potassium channel, whole cell patch-clamp technique was used to record hERG potassium channel current at room temperature. The glass microelectrode was made of a glass electrode blank (BF150-86-10, Sutter) by a puller. The tip resistance after filling the liquid in the electrode was about 2-5 MΩ. The glass microelectrode can be connected to the patch-clamp amplifier by inserting the glass microelectrode into an amplifier probe. The clamping voltage and data recording were controlled and recorded by the pClamp 10 software through a computer. The sampling frequency was 10 kHz, and the filtering frequency was 2 kHz. […]
Compound IC50 was calculated using GraphPad Prism 5 software by fitting according to the following equation: Y = Bottom + (Top−Bottom)/(1+10^(∧)((LogIC50−X)*HillSlope)) [formula] where X represents the Log value of the tested concentration of the test sample, Y represents the inhibition percentage at the corresponding concentration, and Bottom and Top represent the minimum and maximum inhibition percentage, respectively. […]

IRAK4 = target: T2, IRAK4 (Homo sapiens, UniProt Q9NWZ3); experiment: IRAK4 degradation activity in hPBMC cells (24 hours), automated western blot; format: cell-based; conditions: IRAK4 protein degradation in hPBMC cells
T2 construct: endogenous in cells; host or cells: human peripheral blood mononuclear cells (hPBMC) from healthy volunteers
T2 sequence (Q9NWZ3 1-460): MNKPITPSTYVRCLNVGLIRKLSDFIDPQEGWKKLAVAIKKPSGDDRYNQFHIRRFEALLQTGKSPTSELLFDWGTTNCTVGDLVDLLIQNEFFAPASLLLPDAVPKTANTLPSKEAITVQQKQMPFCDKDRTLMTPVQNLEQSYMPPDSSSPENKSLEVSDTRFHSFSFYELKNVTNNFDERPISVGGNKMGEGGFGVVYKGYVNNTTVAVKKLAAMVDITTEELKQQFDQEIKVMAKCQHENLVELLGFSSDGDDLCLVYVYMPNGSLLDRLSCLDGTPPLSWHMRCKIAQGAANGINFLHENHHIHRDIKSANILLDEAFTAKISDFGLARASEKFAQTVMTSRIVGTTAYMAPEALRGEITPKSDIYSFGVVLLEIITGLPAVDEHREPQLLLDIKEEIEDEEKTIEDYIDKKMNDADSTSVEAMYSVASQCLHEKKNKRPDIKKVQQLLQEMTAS
Experimental: Test example 1: Study on IRAK4 degradation activity in hPBMC cells (24 hours)
hPBMC cells are human peripheral blood mononuclear cells. Peripheral venous blood was taken from healthy volunteers, and hPBMCs were isolated using Ficoll density gradient centrifugation (Ficoll-PaqueTM PLUS 1.077, GE, Cat. 17-1140-02). Culture conditions: RPMI-1640 + 10% FBS + 1% penicillin-streptomycin solution. The cells were cultured in an incubator at 37°C and 5% CO2. The cells were plated in a 24-well plate at 1 × 10^6 cells/well. After plating, compounds at different concentrations were added, and the cells were cultured in an incubator at 37°C and 5% CO2 for 24 hours. After the culture was completed, the cells were collected, and RIPA lysis buffer (beyotime, Cat. P0013B) was added. […] The protein sample of the supernatant was collected, the protein was quantified using a BCA kit (Beyotime, Cat. P0009), and then the protein was diluted to 1 mg/mL. The expression of IRAK4 (CST, Cat. 4363S) and the internal reference cofilin (CST, Cat. 5175S) were detected using a fully automated western blot quantitative analyser (Proteinsimple). The expression level of IRAK4 relative to the internal reference was calculated using compass software. […] An IRAK4 degradation-drug concentration curve was fit using Graphpad Prism 8 software, and the DC50 was calculated. […]

[2] = Pharmacokinetic test in mice; format: in vivo, ICR mice; conditions: mouse, po; plasma of mice, i.g. (10 mg/kg)
Experimental: Test example 2: Pharmacokinetic test in mice
Experimental animals: Male ICR mice, about 25 g, 6 mice/compound, purchased from Chengdu Ddossy Experimental Animals Co., Ltd.
Test design: On the day of the experiment, 6 ICR mice were randomly grouped according to their body weights. The animals were fasted with water available for 12 to 14 h one day before the administration, and were fed 4 h after the administration. Table 2.1 Administration information
Before and after the administration, 0.15 mL of blood was taken from the orbit of the animals under isoflurane anaesthesia and placed in an EDTAK2 centrifuge tube. The blood was centrifuged at 5000 rpm and 4°C for 10 min to collect plasma. The blood collection time points for the intravenous administration group and intragastric administration group were 0 min, 5 min, 15 min, 30 min, 1 h, 2 h, 4 h, 7 h and 24 h. Before analysis and detection, all samples were stored at - 60°C. The samples were analysed quantitatively by LC-MS/MS. Table 2.2 Pharmacokinetic parameters of compounds of the present invention in plasma of mice

T1 sequence (Q12809 whole entry): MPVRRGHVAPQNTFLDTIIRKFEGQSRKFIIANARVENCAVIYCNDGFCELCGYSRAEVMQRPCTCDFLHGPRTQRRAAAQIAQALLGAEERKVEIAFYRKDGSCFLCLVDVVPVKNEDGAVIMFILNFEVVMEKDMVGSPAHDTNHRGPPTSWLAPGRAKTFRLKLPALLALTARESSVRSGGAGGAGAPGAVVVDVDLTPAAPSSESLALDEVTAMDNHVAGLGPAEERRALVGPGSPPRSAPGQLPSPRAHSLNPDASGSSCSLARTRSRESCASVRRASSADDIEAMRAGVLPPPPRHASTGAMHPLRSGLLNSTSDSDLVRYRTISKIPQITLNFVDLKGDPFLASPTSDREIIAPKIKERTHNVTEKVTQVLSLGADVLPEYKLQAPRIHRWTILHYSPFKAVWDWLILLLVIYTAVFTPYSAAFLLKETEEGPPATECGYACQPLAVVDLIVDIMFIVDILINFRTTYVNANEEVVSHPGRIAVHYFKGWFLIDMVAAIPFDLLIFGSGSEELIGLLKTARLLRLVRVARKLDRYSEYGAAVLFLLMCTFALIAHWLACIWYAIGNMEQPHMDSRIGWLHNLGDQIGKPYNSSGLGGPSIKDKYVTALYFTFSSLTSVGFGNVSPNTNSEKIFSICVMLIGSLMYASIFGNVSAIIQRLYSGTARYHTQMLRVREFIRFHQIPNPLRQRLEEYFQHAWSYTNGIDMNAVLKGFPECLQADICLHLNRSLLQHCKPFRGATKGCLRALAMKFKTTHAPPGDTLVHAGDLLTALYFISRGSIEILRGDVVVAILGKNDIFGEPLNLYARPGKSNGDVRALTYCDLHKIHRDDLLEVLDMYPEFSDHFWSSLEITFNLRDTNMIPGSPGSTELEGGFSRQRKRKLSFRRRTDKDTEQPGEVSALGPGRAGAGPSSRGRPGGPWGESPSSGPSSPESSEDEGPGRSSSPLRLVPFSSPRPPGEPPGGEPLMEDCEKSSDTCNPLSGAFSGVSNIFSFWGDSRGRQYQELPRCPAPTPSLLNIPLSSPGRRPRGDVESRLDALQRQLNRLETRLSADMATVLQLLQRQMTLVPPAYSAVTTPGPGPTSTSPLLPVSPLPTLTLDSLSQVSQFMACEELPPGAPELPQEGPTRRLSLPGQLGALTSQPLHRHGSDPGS

Structure (SMILES)	IC50 [1] [nM]	DC50 (IRAK4) [nM]	AUC(0-t) at 24 h [2] [ng·h/mL]
Cn1nc(C2CCC(=O)NC2=O)c2cccc(C#CCO[C@@H]3CCN(C[C@H]4CC[C@H](n5cc(NC(=O)c6cnn7ccc(N8CCO[C@H](CO)C8)nc67)c(C(F)F)n5)CC4)C[C@@H]3F)c21 (single isomer, unassigned) [Chiral isomer 1 of compound 20]	> 40000	< 20	–
Cn1nc(C2CCC(=O)NC2=O)c2cccc(C#CCO[C@@H]3CCN(C[C@H]4CC[C@H](n5cc(NC(=O)c6cnn7ccc(N8CCO[C@H](CO)C8)nc67)c(C(F)F)n5)CC4)C[C@@H]3F)c21 (single isomer, unassigned) [Chiral isomer 2 of compound 20]	–	< 20	–
Cn1c(=O)n(C2CCC(=O)NC2=O)c2cccc(C#CCOC3CCN(C[C@H]4CC[C@H](n5cc(NC(=O)c6cnn7ccc(N8C[C@H]9C[C@@H]8CO9)nc67)c(C(F)F)n5)CC4)CC3)c21 (stereo partly shown) [Control compound 1]	–	–	2320 ± 146
